Laboratory results as given in publication PMC6328428, “Synthesis, Urease Inhibition and Molecular Modelling Studies of Novel Derivatives of the Naturally Occurring β-Amyrenone” (Natural Products and Bioprospecting, 2018).

Experiments:
[1] = target: T1, Jack bean Urease (Canavalia ensiformis, UniProt P07374); experiment: biochemical
T1 construct: purchased Sigma
Description: Urease activity was obtained by measuring ammonia production using the indophenol method as described by Bankeu et al., (2017). […] Reaction mixtures with 25 μL of enzyme (Jack bean Urease bought from Sigma) solution and 55 μL of buffers containing 100 mM urea were incubated with 5 μL of compounds 1—4 (1 mM concentration) at 30 °C for 15 min in 96-well plates. In fact, 45 μL each of phenol reagent (1% w/v phenol and 0.005% w/v sodium nitroprusside) and 70 μL of alkali reagent (0.5% w/v NaOH and 0.1% active chloride NaOCl) were added to each well. The absorbance at 630 nm was recorded after 50 min, using a microplate reader (Molecular Device, USA). All reactions were performed in triplicate in a final volume of 200 μL. The results (change in absorbance per min) were processed by using Soft Max Pro software (Molecular Device, USA). All the assays were performed at pH 8.2 (0.01 M K2HPO4·3H2O, 1 mM EDTA and 0.01 M LiCl). Percentage inhibitions were calculated from the formula (Eq. 1):1 Urease inhibition%=100-ODtest/ODcontrol×100 where OD stands for optical density.
Urease inhibition percentages were used to determine the concentration that inhibit 50% of urease activity (IC50) using GraphPad Prism 5.0, USA.
The resulting data are shown as mean ± SD of three independent assays. One way one analysis of variance (ANOVA) was carried out for the determination of difference between groups (GraphPad Prism 5.0, USA). […] was considered as significant.

T1 sequence (P07374 whole entry, looked up): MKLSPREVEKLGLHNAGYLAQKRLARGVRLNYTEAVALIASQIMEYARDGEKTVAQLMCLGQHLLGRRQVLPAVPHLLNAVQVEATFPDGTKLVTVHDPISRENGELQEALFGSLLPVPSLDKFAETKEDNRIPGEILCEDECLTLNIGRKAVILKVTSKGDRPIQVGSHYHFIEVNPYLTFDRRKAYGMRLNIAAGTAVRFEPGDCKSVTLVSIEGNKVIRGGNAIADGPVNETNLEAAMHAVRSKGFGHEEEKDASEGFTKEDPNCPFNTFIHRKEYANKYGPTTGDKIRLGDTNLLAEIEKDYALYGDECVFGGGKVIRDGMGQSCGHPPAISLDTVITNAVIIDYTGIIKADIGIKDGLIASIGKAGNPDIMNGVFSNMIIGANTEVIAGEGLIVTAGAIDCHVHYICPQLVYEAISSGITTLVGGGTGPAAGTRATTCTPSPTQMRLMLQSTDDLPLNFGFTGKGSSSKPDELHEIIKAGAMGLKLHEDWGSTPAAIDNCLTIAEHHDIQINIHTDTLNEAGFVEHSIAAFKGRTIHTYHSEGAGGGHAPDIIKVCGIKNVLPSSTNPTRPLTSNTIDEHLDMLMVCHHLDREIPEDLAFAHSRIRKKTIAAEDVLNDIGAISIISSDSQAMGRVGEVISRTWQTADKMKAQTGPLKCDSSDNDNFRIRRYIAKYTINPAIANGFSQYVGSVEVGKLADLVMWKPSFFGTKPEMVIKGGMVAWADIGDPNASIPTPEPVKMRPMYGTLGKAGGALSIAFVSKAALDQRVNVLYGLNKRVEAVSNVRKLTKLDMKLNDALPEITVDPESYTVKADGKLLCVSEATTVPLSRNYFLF

SMILES	IC50 [1] [µM]	melting point [°C]
CC1(C)CC[C@]2(C)CC[C@]3(C)C(=CCC4[C@@]5(C)CCC(=O)C(C)(C)[C@@H]5CC[C@]43C)[C@H]2C1 (stereo partly drawn) [Compound 1, β-Amyrenone]	14.5 ± 0.21	–
CC1(C)CCC2(C)CCC3(C)C(=CCC4C5(C)CC/C(=N\Nc6ccc([N+](=O)[O-])cc6[N+](=O)[O-])C(C)(C)C5CCC43C)C2C1 (centres unmarked) [Compound 2, (E)-1-(2,4-Dinitrophenyl)-2-(4,4,6a,6b,8a,11,11,14b-octamethyl-1,4,4a,5,6,6a,6b,7,8,8a,9,10,11,12,12a,14,14a,14b-octadecahydropicen-3(2H)-ylidene)hydrazine]	24.6 ± 0.17	260
COc1ccc2[nH]c3c(c2c1)C[C@]1(C)C2CC=C4[C@H]5CC(C)(C)CC[C@]5(C)CC[C@@]4(C)[C@]2(C)CC[C@H]1C3(C)C (stereo partly drawn) [Compound 3, (4aR,6aS,6bR,8aR,15aR,17bS)-13-Methoxy-2,2,4a,6a,6b,9,9,15a-octamethyl-2,3,4,4a,5,6,6a,6b,7,8,8a,9,10,15,15a,15b,16,17b-octadecahydro-1H-chryseno[2,1-b]carbazole]	22.2 ± 0.9	–
CC1(C)CC[C@]2(C)CC[C@]3(C)C(=CCC4[C@@]5(C)Cc6c([nH]c7ccccc67)C(C)(C)[C@@H]5CC[C@]43C)[C@H]2C1 (stereo partly drawn) [Compound 4, (4aR,6aS,6bR,8aR,15aR,17bS)-2,2,4a,6a,6b,9,9,15a-Octamethyl-2,3,4,4a,5,6,6a,6b,7,8,8a,9,10,15,15a,15b,16,17b-octadecahydro-1H-chryseno[2,1-b]carbazole]	17.9 ± 0.45	–
